Measured values reported in US20010044445A1, “AZOLE INHIBITORS OF CYTOKINE PRODUCTION” (priority 1999, published 2001).
pIC50: −log10 of the molar value.

Test system: Human peripheral blood mononuclear cells
Assay: Human Concanavalin-A Proliferation Assay (Con HU Assay)
Type: cell-based
Conditions: concanavalin-A stimulated human PBMC; for pIC50: tritiated thymidine; for inhibition at 10 µM / inhibition at 1 µM / inhibition at 100 µM: 72 h, read-out: % Inhibition of proliferation (at concentrations of 1,10, or 100 μm); for inhibition at 10 µM / inhibition at 1 µM / % Inhibition of proliferation (at concentrations of 1,10, or 100 μm) / inhibition at 100 µM: 3 days; for inhibition at 100 µM: concentration 100 μm (in parentheses in the cell)
Description: Human peripheral blood mononuclear cells were cultured in RPMI 1640 medium supplemented with 10 μg/ml gentamicin, 50 μM 2-mercaptoethanol, 1X MEM non-essential amino acids (Sigma Chemical Co., St. Louis, Mo.), 100 U/ml sodium penicillin G, 100 μg/ml streptomycin sulfate, 2 mM L-glutamine, 1 mM sodium pyruvate (Life Technologies, Grand Island, N.Y.) and 10% fetal bovine serum (Hyclone, Logan, Utah) at 37° C. with 5% CO2.
The procedure in Current Protocols in Immunology, Volume 1, Published by the Greene Publishing Associates and John Wiley & Sons, Inc, Edited by Richard Coico, 1994, hereby incorporated by reference, was followed. Briefly, 50 ml of blood from human volunteers was collected in heparinized syringes and mixed. Blood was diluted 1:1 in Dulbecco's phosphate buffered saline (D-PBS) (Life Technologies, Grand Island, N.Y.) and mixed. PBS-blood mixture was overlaid into 50 ml centrifuge tubes containing 15 ml Histopaque 1077 (Sigma Chemical Co., St. Louis, Mo.) and centrifuged at 500 X G for 30 minutes at room temperature. Cells at the interface from each Histopaque tube were removed and mixed with 5 ml of D-PBS. Each cell suspension was diluted to 50 ml with D-PBS, mixed and centrifuged at 400 X G for 15 minutes at room temperature. After most of the supernatant was removed, cells were resuspended to 40 ml with D-PBS per tube (2 tubes per donor). Cells were centrifuged at 400 X G for 10 minutes at room temperature. Pellets were resuspended in 10 ml of supplemented RPMI 1640 and cell number determined with a Coulter counter. Cells were diluted to a concentration of 0.5×10^6 cells per mL.
The procedure in Current Protocols in Immunology, Volume 1, Published by the Greene Publishing Associates and John Wiley & Sons, Inc, Edited by Richard Coico, 1994, hereby incorporated by reference, was followed. Briefly, test compounds were added to appropriate wells on 96-well tissue culture plates (Corning Glass Works, Corning, N.Y.) in 20 µl of supplemented RPMI 1640. Human peripheral blood mononuclear cells were added to each well in 100 μl volumes (final cell concentration equal to 50,000 cells per well). After 15 minutes, 100 μl of 5 μg/ml concanavalin-A (Sigma Chemical Co., St. Louis, Mo.) in supplemented RPMI 1640 was added to a final concentration of 2.5 μg/ml. Plates were incubated for 3 days at 37° C. with 5% CO2. On day 3, plates were pulsed with 0.5 μCi/well tritiated thymidine (New England Nuclear, Boston, Mass.). After 6 hours, plates were harvested on a Tomatec 96-well havester (Orange, Conn.). Glass filter mats were counted on a Matrix 9600 direct beta counter (Packard, Meriden, Conn.).

[1] = Homo sapiens, PBMC, concentration 10 μm (in parentheses in the cell)
[2] = Homo sapiens, PBMC, concentration 1 μm (in parentheses in the cell)
[3] = concentration 1 μm (in parentheses in the cell)

Row | Compound | pIC50 (Homo sapiens, PBMC) | other results
1 | Cn1ccc(-c2cc(OC(F)F)n(-c3ccc(NC(=O)c4ccncc4F)cc3)n2)c1 [Example 358, N-(4-(5-(difluoromethoxy)-3-(1-methyl-1H-pyrrol-3-yl)-1H-pyrazol-1-yl)phenyl)-3-fluoroisonicotinamide] | 6.69 | 
2 | N#Cc1cc(-c2nccs2)nn1-c1ccc(NC(=O)c2ccncc2F)cc1 [Example 338, N-(4-(5-cyano-3-(1,3-thiazol-2-yl)-1H-pyrazol-1-yl)phenyl)-3-fluoroisonicotinamide] | 6.79 | 
3 | Cc1cc(Br)ccc1NC(=O)Nc1ccc(-n2nc(C(F)(F)F)cc2C(F)(F)F)cc1 [Example 77, N-[4-[3,5-bis(trifluoromethyl)-1H-pyrazol-1-yl]phenyl]-N′-(4-bromo-2-methylphenyl)urea] | 6.18 | inhibition at 10 µM [1]: 93%
4 | CN(C(=O)c1ccccc1Cl)c1ccc(-n2nc(C(F)(F)F)cc2C(F)(F)F)cc1 [Example 80, N-[4-[3,5-bis(trifluoromethyl)-1H-pyrazol-1-yl]phenyl]-2-chloro-N-methylbenzamide] |  | inhibition at 1 µM [2]: 43%
5 | O=C(Nc1ccc(-n2nc(C(F)(F)F)cc2C(F)(F)F)cc1)C1CC2C=CC1C2 (stereo not drawn) [Example 26, N-[4-[3,5-bis(trifluoromethyl)-1H-pyrazol-1-yl]phenyl]bicyclo[2.2.1]hept-5-ene-2-carboxamide] |  | inhibition at 1 µM [2]: 24%
6 | O=C1CCC(C(=O)Nc2ccc(-n3nc(C(F)(F)F)cc3C(F)(F)F)cc2)N1 (stereo not drawn) [Example 255, N-[4-[3,5-bis(trifluoromethyl)-1H-pyrazol-1-yl]phenyl]-5-oxo-2-pyrrolidinecarboxamide] |  | inhibition at 1 µM [2]: 12%
7 | N#Cc1cccc(NCc2ccc(-n3nc(C(F)(F)F)cc3C(F)(F)F)cc2)c1 [Example 95, 3-[4-[[[3,5-bis(trifluoromethyl)-1H-pyrazol-1-yl]phenyl]methyl]amino]benzonitrile] |  | pIC50: 5.14; % Inhibition of proliferation (at concentrations of 1,10, or 100 μm) (concentration 10 μm (in parentheses in the cell)): 47(10) %
8 | O=C(Nc1ccc(-n2nc(C(F)(F)F)cc2C(F)(F)F)cc1)c1ccccn1 [Example 121, N-[4-[3,5-bis(trifluoromethyl)-1H-pyrazol-1-yl]phenyl]-2-pyridinecarboxamide] | 4.98 | inhibition at 100 µM (Homo sapiens, PBMC): 53%
9 | O=C(Nc1ccc(-n2nc(C(F)(F)F)cc2C(F)(F)F)cc1)c1c(F)c(F)c(Br)c(F)c1F [Example 236, N-[4-[3,5-bis(trifluoromethyl)-1H-pyrazol-1-yl]phenyl]-4-bromo-2,3,5,6-tetrafluorobenzamide] | 6.74 | inhibition at 10 µM [1]: 100%
10 | CCN(CC)c1ccc(C(=O)Nc2ccc(-n3nc(C(F)(F)F)cc3C(F)(F)F)cc2)cc1 [Example 122, N-[4-[3,5-bis(trifluoromethyl)-1H-pyrazol-1-yl]phenyl]-4-(diethylamino)benzamide] |  | inhibition at 1 µM [2]: 15%
11 | COc1cc(C(F)(F)F)nn1-c1ccc(NC(=O)c2ccncc2)cc1 [Example 312, N-(4-(5-methoxy-3-(trifluoromethyl)-1H-pyrazol-1-yl)phenyl)isonicotinamide] | 6.53 | 
12 | O=C(Nc1ccc(-n2nc(C(F)(F)F)cc2C(F)(F)F)cc1)c1ccc(Br)o1 [Example 251, N-[4-[3,5-bis(trifluoromethyl)-1H-pyrazol-1-yl]phenyl]-5-bromo-2-furancarboxamide] |  | inhibition at 1 µM [2]: 50%
13 | O=C(Nc1ccc(-n2nc(-c3ccncc3)cc2C(F)(F)F)cc1)c1ccncc1F [Example 318, 3-fluoro-N-(4-(3-(4-pyridinyl)-5-(trifluoromethyl)-1H-pyrazol-1-yl)phenyl)isonicotinamide] | 6.59 | 
14 | O=C(Nc1ccc(-n2nc(C(F)(F)F)cc2C(F)(F)F)cc1)c1cccc(Br)c1 [Example 144, N-[4-[3,5-bis(trifluoromethyl)-1H-pyrazol-1-yl]phenyl]-3-bromobenzamide] | 6.62 | inhibition at 100 µM (Homo sapiens, PBMC): 100%
15 | Cc1ccc([N+](=O)[O-])cc1NC(=O)Nc1ccc(-n2nc(C(F)(F)F)cc2C(F)(F)F)cc1 [Example 50] |  | % Inhibition of proliferation (at concentrations of 1,10, or 100 μm) [3]: 2(1) %
16 | N#Cc1cc(C(F)(F)F)nn1-c1ccc(NC(=O)c2ccccc2F)cc1 [Example 300, N-{4-[5-cyano-3-(trifluoromethyl)-1H-pyrazol-1-yl]phenyl}-2-fluorobenzamide] | 7.10 | 
17 | O=C(Nc1ccccc1Br)c1ccc(-n2nc(C(F)(F)F)cc2C(F)(F)F)cc1 [Example 192, 4-[3,5-Bis(trifluoromethyl)-1H-pyrazol-1-yl]-N-(2-bromophenyl)benzamide] |  | inhibition at 1 µM [2]: 10%
18 | O=C(Nc1ccc(-n2nc(C(F)(F)F)cc2OC(F)F)cc1)c1ccncc1 [Example 322, N-(4-(5-(difluoromethoxy)-3-(trifluoromethyl)-1H-pyrazol-1-yl)phenyl)isonicotinamide] | 6.62 | 
19 | O=C(Nc1ccc(-n2nc(-c3nccs3)cc2Cl)cc1)c1ccncc1F [Example 347, N-(4-(5-chloro-3-(1,3-thiazol-2-yl)-1H-pyrazol-1-yl)phenyl)-3-fluoroisonicotinamide] | 6.54 | 
20 | CCOc1cc(C(F)(F)F)nn1-c1ccc(NC(=O)c2cccnc2F)cc1 [Example 319, N-(4-(5-ethoxy-3-(trifluoromethyl)-1H-pyrazol-1-yl)phenyl)-2-fluoronicotinamide] | 6.66 | 
21 | Cc1cc(C(F)(F)F)nn1-c1ccc(NC(=O)c2ccc(Cl)cc2)cc1 [Example 281, 4-chloro-N-[4-[5-methyl-3-(trifluoromethyl)-1H-pyrazol-1-yl]phenyl]benzamide] | 5.97 | inhibition at 100 µM (Homo sapiens, PBMC): 94%
22 | N#Cc1cc(C2CCCO2)nn1-c1ccc(NC(=O)c2ccncc2F)cc1 (stereo not drawn) [Example 357, N-(4-(5-cyano-3-tetrahydro-2-furanyl-1H-pyrazol-1-yl)phenyl)-3-fluoroisonicotinamide] | 5.73 | 
23 | O=C(CCCC[C@@H]1SC[C@@H]2NC(=O)N[C@@H]21)Nc1ccc(-n2nc(C(F)(F)F)cc2C(F)(F)F)cc1 [Example 23, 3a(S)-(3aα,4β,6aα)-N-[4-[3,5-bis(trifluoromethyl)-1H-pyrazol-1-yl]phenyl]hexahydro-2-oxo-1H-thieno[3,4-d]limidazole-4-pentanamide] |  | % Inhibition of proliferation (at concentrations of 1,10, or 100 μm) [3]: 4(1) %
24 | COC(=O)c1cc(NC(=O)c2cc(Br)ccc2Cl)ccc1-n1nc(C(F)(F)F)cc1C(F)(F)F [Example 274, methyl 2-[3,5-bis(trifluoromethyl)-1H-pyrazol-1-yl]-5-[(5-bromo-2-chlorobenzoyl)amino]benzoate] | 5.66 | inhibition at 10 µM [1]: 100%
25 | O=C(Nc1ccc(-n2nc(C(F)(F)F)cc2-c2ccco2)cc1)c1ccccc1F [Example 301, 2-fluoro-N-(4-(5-(2-furyl)-3-(trifluoromethyl)-1H-pyrazol-1-yl)phenyl)benzamide] | 6.63 | 
26 | O=C(Nc1ccc(-n2nc(C(F)(F)F)cc2C(F)(F)F)cc1)c1cc(Br)c(Br)s1 [Example 263, N-[4-[3,5-bis(trifluoromethyl)-1H-pyrazol-1-yl]phenyl]-2,3-dibromo-5-thiophenecarboxamide] | 5.53 | inhibition at 10 µM [1]: 100%
27 | N#Cc1cc(C(F)(F)F)nn1-c1ccc(NC(=O)c2cc(F)cc(F)c2F)cc1 [Example 307, N-(4-(5-cyano-3-(trifluoromethyl)-1H-pyrazol-1-yl)phenyl)-2,3,5-trifluorobenzamide] | 7.10 | 
28 | Cc1nnsc1C(=O)Nc1ccc(-n2nc(-c3cccnc3)cc2C#N)cc1 [Example 331, N-(4-(5-cyano-3-(3-pyridinyl)-1H-pyrazol-1-yl)phenyl)-4-methyl-1,2,3-thiadiazole-5-carboxamide] | 6.66 | 
